Tests used:
Format in all cases: in vivo
[1] = system: barnyardgrass (Echinochloa crus-galli); experiment: Test A pre-/postemergence plant response
Outline: (§1)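 Injury was scored visually after roughly ten days against untreated controls, 0 = no effect, 100 = complete control. Test chemicals in a surfactant-containing non-phytotoxic solvent were sprayed either onto soil preemergence or onto one- to two-leaf, 2–10 cm plants postemergence.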

[2] = system: corn (Zea mays); experiment: Test A pre-/postemergence plant response
Outline: as §1

[3] = system: giant foxtail (Setaria faberii); experiment: Test A pre-/postemergence plant response
Outline: as §1

[4] = system: large crabgrass (Digitaria sanguinalis); experiment: Test A pre-/postemergence plant response
Outline: as §1

[5] = system: morningglory (Ipomoea spp.); experiment: Test A pre-/postemergence plant response
Outline: as §1

[6] = system: pigweed (Amaranthus retroflexus); experiment: Test A pre-/postemergence plant response
Outline: as §1

[7] = system: velvetleaf (Abutilon theophrasti); experiment: Test A pre-/postemergence plant response
Outline: as §1

[8] = system: wheat (Triticum aestivum); experiment: Test A pre-/postemergence plant response
Outline: as §1

[9] = system: canarygrass (Phalaris minor); experiment: Test B postemergence plant response; conditions: Postemergence; for Canarygrass plant response rating: 250 g ai/ha, scale 0 to 100
Source text: (§2) At the same time, plants selected from these crop and weed species and also winter barley (Hordeum vulgare), canarygrass (Phalaris minor), chickweed (Stellaria media) and windgrass (Apera spica-venti) were planted in pots containing Redi-Earth® planting medium (Scotts Company, 14111 Scottslawn Road, Marysville, Ohio 43041) comprising spaghnum peat moss, vermiculite, wetting agent and starter nutrients and treated with postemergence applications of some of the test chemicals formulated in the same manner. Plants ranged in height from 2 to 18 cm (1- to 4-leaf stage) for postemergence treatments.
(§3) Treated plants and controls were maintained in a greenhouse for 13 to 15 days, after which time all treated plants were visually evaluated and compared to controls. Plant response ratings, summarized in Table B, are based on a scale of 0 to 100 where 0 is no effect and 100 is complete control. A dash (-) response means no test result.

[10] = system: chickweed (Stellaria media); experiment: Test B postemergence plant response; conditions: Postemergence; for Chickweed plant response rating: 250 g ai/ha, scale 0 to 100
Source text: as §2, §3

[11] = system: windgrass (Apera spica-venti); experiment: Test B postemergence plant response; conditions: Postemergence; for Windgrass plant response rating: 250 g ai/ha, scale 0 to 100
Source text: as §2, §3

[12] = system: winter barley (Hordeum vulgare); experiment: Test B postemergence plant response; conditions: Postemergence; for Barley plant response rating: 250 g ai/ha, scale 0 to 100
Source text: as §2, §3

[13] = Postemergence, 125 g ai/ha, visual injury, 0 to 100 scale (0 no effect, 100 complete control), approx. ten days
[14] = Postemergence, 500 g ai/ha, 0 to 100 scale, 0 = no effect, 100 = complete control, approx. ten days
[15] = Preemergence, 125 g ai/ha, 0 to 100 scale, 0 = no effect, 100 = complete control
[16] = Preemergence, 500 g ai/ha, visual injury, 0 to 100 scale (0 no effect, 100 complete control), approx. ten days
[17] = 31 g ai/ha, scale 0 to 100 (0 no effect, 100 complete control)
[18] = 62 g ai/ha, scale 0 (no effect) to 100 (complete control), 13 to 15 days
[19] = 125 g ai/ha, visual rating after 13 to 15 days, scale 0 (no effect) to 100 (complete control)
[20] = 125 g ai/ha, scale 0 to 100 (0 no effect, 100 complete control), 13 to 15 days

3-cyclohexyl-5-[(2-hydroxy-6-oxo-1-cyclohexen-1-yl)carbonyl]-2-phenyl-4(3H)-pyrimidinone [Compound 128]
Barnyardgrass plant response rating [1, 13]: 40 | Plant response rating, Barnyardgrass [1, 14]: 100 | Plant response rating, Barnyardgrass [1, 15]: 0 | Plant response rating, Barnyardgrass [1, 16]: 70 | Corn plant response rating [2, 13]: 0 | Plant response rating, Corn [2, 14]: 20 | Plant response rating, Corn [2, 15]: 0 | Plant response rating, Corn [2, 16]: 0 | Foxtail, Giant plant response rating [3, 13]: 70 | Plant response rating, Foxtail, Giant [3, 14]: 90 | Plant response rating, Foxtail, Giant [3, 15]: 10 | Plant response rating, Foxtail, Giant [3, 16]: 50 | Crabgrass, Large plant response rating [4, 13]: 50 | Plant response rating, Crabgrass, Large [4, 14]: 90 | Plant response rating, Crabgrass, Large [4, 15]: 20 | Plant response rating, Crabgrass, Large [4, 16]: 90 | Morningglory plant response rating [5, 13]: 90 | Plant response rating, Morningglory [5, 14]: 90 | Plant response rating, Morningglory [5, 15]: 0 | Plant response rating, Morningglory [5, 16]: 70 | Pigweed plant response rating [6, 13]: 90 | Plant response rating, Pigweed [6, 14]: 100 | Plant response rating, Pigweed [6, 15]: 60 | Plant response rating, Pigweed [6, 16]: 100 | Velvetleaf plant response rating [7, 13]: 100 | Plant response rating, Velvetleaf [7, 14]: 100 | Plant response rating, Velvetleaf [7, 15]: 60 | Plant response rating, Velvetleaf [7, 16]: 100 | Wheat plant response rating [8, 13]: 0 | Plant response rating, Wheat [8, 14]: 0 | Plant response rating, Wheat [8, 15]: 0 | Plant response rating, Wheat [8, 16]: 0 | Plant response rating, Canarygrass [9, 17]: 50 | Plant response rating, Canarygrass [9, 18]: 50 | Plant response rating, Canarygrass [9, 19]: 90 | Canarygrass plant response rating [9]: 90 | Plant response rating, Chickweed [10, 17]: 80 | Plant response rating, Chickweed [10, 18]: 98 | Plant response rating, Chickweed [10, 19]: 100 | Chickweed plant response rating [10]: 100 | Plant response rating, Windgrass [11, 17]: 40 | Plant response rating, Windgrass [11, 18]: 85 | Plant response rating, Windgrass [11, 19]: 85 | Windgrass plant response rating [11]: 98 | Plant response rating, Barley [12, 17]: 0 | Plant response rating, Barley [12, 18]: 10 | Plant response rating, Barley [12, 20]: 10 | Barley plant response rating [12]: 10

5-[(2-hydroxy-6-oxo-1-cyclohexen-1-yl)carbonyl]-2,3-diphenyl-4(3H)-pyrimidinone [Compound 2]
Barnyardgrass plant response rating [1, 13]: 20 | Plant response rating, Barnyardgrass [1, 14]: 60 | Plant response rating, Barnyardgrass [1, 15]: 0 | Plant response rating, Barnyardgrass [1, 16]: 10 | Corn plant response rating [2, 13]: 0 | Plant response rating, Corn [2, 14]: 0 | Plant response rating, Corn [2, 15]: 0 | Plant response rating, Corn [2, 16]: 0 | Foxtail, Giant plant response rating [3, 13]: 10 | Plant response rating, Foxtail, Giant [3, 14]: 40 | Plant response rating, Foxtail, Giant [3, 15]: 0 | Plant response rating, Foxtail, Giant [3, 16]: 10 | Crabgrass, Large plant response rating [4, 13]: 50 | Plant response rating, Crabgrass, Large [4, 14]: 80 | Plant response rating, Crabgrass, Large [4, 15]: 10 | Plant response rating, Crabgrass, Large [4, 16]: 70 | Morningglory plant response rating [5, 13]: 70 | Plant response rating, Morningglory [5, 14]: 90 | Plant response rating, Morningglory [5, 16]: 50 | Pigweed plant response rating [6, 13]: 70 | Plant response rating, Pigweed [6, 14]: 80 | Plant response rating, Pigweed [6, 15]: 20 | Plant response rating, Pigweed [6, 16]: 100 | Velvetleaf plant response rating [7, 13]: 100 | Plant response rating, Velvetleaf [7, 14]: 100 | Plant response rating, Velvetleaf [7, 15]: 60 | Plant response rating, Velvetleaf [7, 16]: 80 | Wheat plant response rating [8, 13]: 10 | Plant response rating, Wheat [8, 14]: 20 | Plant response rating, Wheat [8, 15]: 0 | Plant response rating, Wheat [8, 16]: 0 | Plant response rating, Canarygrass [9, 17]: 0 | Plant response rating, Canarygrass [9, 18]: 0 | Plant response rating, Canarygrass [9, 19]: 0 | Canarygrass plant response rating [9]: 0 | Plant response rating, Chickweed [10, 17]: 55 | Plant response rating, Chickweed [10, 18]: 60 | Plant response rating, Chickweed [10, 19]: 65 | Chickweed plant response rating [10]: 90 | Plant response rating, Windgrass [11, 17]: 0 | Plant response rating, Windgrass [11, 18]: 0 | Plant response rating, Windgrass [11, 19]: 0 | Windgrass plant response rating [11]: 5 | Plant response rating, Barley [12, 17]: 0 | Plant response rating, Barley [12, 18]: 0 | Plant response rating, Barley [12, 20]: 0 | Barley plant response rating [12]: 0

From patent publication US8952024B2, “Herbicidal pyrimidone derivatives” (E I du Pont de Nemours and Company, priority 2009, dated 2015)
